Data taken from PMC10082216 (Nature Communications, 2023).
Structures can show the parent of a compound that is named as a salt. Where two headings read alike, the source gives them in different places.

Legend:
HEK293T = details: cited from earlier work
HepG2 = details: cited from earlier work
P.falciparum Dd2 = test system: P.falciparum Dd2; set-up: method as in previously published reports (Table S1 legend); details: 72 h; results in previous assays; ref previously published reports (Table S1 legend); read-out: 72-h Dd2-SybrGreen PBFS assay IC50; cited from earlier work
[1] = Hit scoring on safety in human subjects and pharmacokinetics; details: for Score (PK): peak plasma concentration vs IC50
Excerpt: Hits from the ReFrame library were further selected based on safety, preferably oral administration (high score if oral), and potential availability for widespread use.

[2] = test system: mature stage V gametocytes (NF54 strain); test: microbe, parasite or virus in culture; format: cell-based, Plasmodium falciparum; details: read-out: Stiffening IC50 (retention)
Protocol: (§1) Screening was conducted as previously described. Briefly, mature stage V gametocytes (NF54 strain) were cultured in vitro, then exposed to the explored compounds and filtered thereafter through layers of microspheres (microsphiltration)[25],[28]. Stiffening activity was determined by comparing gametocytemia up and downstream from the microsphere layers after filtration of drug-exposed gametocytes in 384-well plates using a vacuum manifold. Gametocytemia was assessed using DNA (Sybr Green) and erythrocyte membrane (CellMask) staining. Killing effect was assessed by MitoTracker staining. We screened two small libraries, specifically the Pathogen Box from the Medicine for Malaria Venture and the Kinase Inhibitors Box from GSK (400 and 350 compounds, respectively, Fig. 1A, B), and furthermore the larger ReFrame repurposing library (12,805 compounds, Fig. 1C).
(§2) The Pathogen Box library (400 compounds, provided by MMV-Medicine for Malaria Ventures, Geneva, Switzerland), the Kinase Inhibitors Box library (350 compounds, provided by GSK-Glaxo SmithKline DDW Unit, Tres Cantos, Spain), and the ReFrame library (12,805 compounds provided by the California Institute for Biomedical Research-Calibr, La Jolla, CA, USA) were used according to the providers’ instructions. DMSO-solubilized compounds (10 mM stock concentration) were loaded in 384-well plates (Seahorse, cat. no. 201035−100). Two columns were left empty for the controls. For each compound, 5 nL were pre-spotted in a single well to reach a final concentration of 1.11 μM. The final volume for each well was 45 μl. Controls were prepared as follows: 22.5 nL of DMSO were loaded in 16 wells as negative controls (0.05% final concentration); 22.5 nL of NITD609 (provided by MMV, Geneva, Switzerland) 1 mM were loaded in 8 wells (0.5 μM final concentration), 17 nL of Calyculin A (Sigma, cat. no. C5552) […] were loaded in 6 wells (75 nM final concentration) and 225 nL of Gentian Violet (MolPort, cat. no. 002-133-551) 10 mM were loaded in the remaining 2 wells (50 μM final concentration). Plates were prepared in triplicate for the Pathogen Box and sextuplicate for the Kinase Inhibitors Box.
(§3) Plasmodium falciparum NF54 strain parasites (used for screening campaign) were cultured at 4% hematocrit in RBCs from informed blood donors (blood group A) as previously described. Parasites were taken from the -80 °C freezer, then rapidly melt for 1 minute in a 37 °C water bath. A saline solution was gently added to avoid the lysis. Firstly, NaCl dissolved at 12% in distilled water (1/5 of the volume measured in the cryovial) and then NaCl dissolved at 1.6% (9 times the cryovial’s volume). After that, fresh RBCs were added to allow parasites re-growth. Infected RBCs were kept in RPMI medium (Sigma-Aldrich, cat. no. R4130), supplemented with 10% of decomplemented human serum, hypoxanthine 50 mg/l (Sigma-Aldrich, cat. no. H9636). Biobank of Castilla y Leon and Centro de Transfusiones de Madrid as providers of human red blood cell concentrates. The production of gametocytes was induced from a 0.5% ring-stage parasitemia (day 0). Medium was changed daily to induce gametocytes differentiation, as previously described. At day 17, gametocytes were concentrated using a density gradient medium (NycoPrep 1.077, Progen cat. no. 1114550)[27]. Parasitemia was adjusted by FACS (SYBR-Green and MitoTracker double staining, 3–5% targeted). Hematocrit was adjusted to 0.5% by adding fresh RBCs and controlled by manual counting in a Neubauer chamber (Celeromics, cat. no. 717810). Finally, the gametocyte suspension was poured (45 μL/well) into the compound-containing 384-well microplate, then incubated 24 hours both for the screening campaign and the dose-response analysis. Both asexual and sexual stages were cultivated in RPMI 1640 supplemented with 25 mM HEPES, 50 mg/L hypoxanthine, 50 μg/mL gentami-cin, 10% pooled heat-inactivated human serum (A^+).

[3] = test system: mature stage V gametocytes (NF54 strain); test: High-throughput screening: killing effect by MitoTracker staining, primary screening at 1.11 µM and dose-response analysis; format: cell-based, Plasmodium falciparum; details: read-out: Killing IC50
Protocol: as §1, §2, §3

[4] = read-out: Cellular cytotoxicity assay IC50, HEK293T, 72 h, first value of cell, ref previously published reports (Table S1 legend)
[5] = read-out: Cellular cytotoxicity assay IC50, HepG2, 72 h, second value of cell, ref previously published reports (Table S1 legend)
[6] = Plasmodium falciparum, NF54, 24 h
[7] = stage V gametocytes NF54, 24 h, dose-response analysis, N/A = not active in dose-response analysis
[8] = Plasmodium falciparum, stage V gametocytes NF54, 24 h, dose-response analysis, N/A = not active in dose-response analysis
[9] = Plasmodium falciparum, NF54, 24 h, stage V gametocytes NF54, 24 h, dose-response analysis, N/A = not active in dose-response analysis

In the case of `CC(=O)O[C@H]1C[C@H](O[C@H]2[C@@H](O)C[C@H](O[C@H]3[C@@H](O)C[C@H](OC4CC[C@@]5(C)[C@H](CC[C@@H]6[C@@H]5CC[C@]5(C)[C@@H](C7=CC(=O)OC7)CC[C@]65O)C4)O[C@@H]3C)O[C@@H]2C)O[C@H](C)[C@H]1O[C@@H]1O[C@H](CO)[C@@H](O)[C@H](O)[C@H]1O` (stereo partly shown) [Lanatoside A], the IC50 (HEK293T; [4]) is listed as 171 nM, the IC50 (HepG2; [5]) is listed as 136 nM and the IC50 (P.falciparum Dd2) is listed as 9950 nM. The “Score (safety)” value ([1]; human) was 0, the “Score (PK)” value [1] was 0 and the IC50 [2, 6] was 860 nM.

For `CC(=O)[O][Hg][c]1cc(C(C)(C)CC(C)(C)C)ccc1O` [Acetomeroctol], the IC50 [3, 7] is given as 7200 nM, the IC50 (HEK293T; [4]) is given as 462 nM and the IC50 (HepG2; [5]) is given as 1920 nM. For the same compound, the IC50 [2, 7] was 5000 nM.

In the case of `O=C(CC1NCCCC1O)Cn1cnc2cc(Br)c(Cl)cc2c1=O` (stereo not shown) [Halofuginone], the IC50 [3, 8] is given as 240 nM, the IC50 (HEK293T) is given as 89 nM and the IC50 (HepG2) is given as 36 nM. The IC50 (P.falciparum Dd2) was 1 nM, the “Score (safety)” value ([1]; human) was 3 and the IC50 [2, 6] was 4300 nM.

In the case of `CO[C@H]1[C@H](O)[C@H](O[C@H]2CC[C@@]3(C=O)[C@H](CC[C@@H]4[C@@H]3CC[C@]3(C)[C@@H](C5=CC(=O)OC5)CC[C@]43O)C2)O[C@@H](C)[C@@H]1O` [Peruvoside], the IC50 (HEK293T; [4]) is listed as 20 nM, the IC50 (HepG2; [5]) is listed as 32 nM and the IC50 (P.falciparum Dd2) is listed as 9950 nM. For the same compound, the IC50 [2, 6] was 2680 nM.

For `N=C(N)c1ccc(C=C2c3ccccc3-c3ccccc32)cc1` [Paranyline], the IC50 [3, 9] is listed as 1900 nM, the IC50 (HEK293T; [4]) is listed as 1420 nM and the IC50 (HepG2; [5]) is listed as 650 nM. For the same compound, the IC50 (P.falciparum Dd2) was 1870 nM, the “Score (safety)” value [1] was 0 and the “Score (PK)” value [1] was 0. The IC50 [2, 6] was 3200 nM.

For Tyrothricin, the IC50 (HEK293T) is given as 1800 nM and the IC50 (HepG2) is given as 1900 nM.

In the case of `C(=N\NC1=NCCN1)/c1c2ccccc2c(/C=N/NC2=NCCN2)c2ccccc12` [Bisantrene HCl], the IC50 [3, 7] is listed as 2200 nM, the IC50 (HEK293T; [4]) is listed as 54 nM and the IC50 (HepG2; [5]) is listed as 62 nM. For the same compound, the IC50 (P.falciparum Dd2) was 65 nM.

For `COc1cccc2c1C(=O)c1c(O)c3c(c(O)c1C2=O)C[C@@](O)(C(C)=O)C[C@@H]3O[C@H]1C[C@H](N)[C@H](O)[C@H](C)O1` [Daunorubicin], the IC50 (HEK293T) is listed as 39 nM, the IC50 (HepG2) is listed as 126 nM and the IC50 [2, 6] is listed as 12000 nM.

In the case of `C[C@@H]1O[C@@H](O[C@H]2CC[C@]3(C=O)[C@H]4CC[C@]5(C)[C@@H](C6=CC(=O)OC6)CC[C@]5(O)[C@@H]4CC[C@]3(O)C2)[C@H](O)[C@H](O)[C@H]1O` [Convallatoxin], the IC50 (HEK293T; [4]) is given as 26 nM, the IC50 (HepG2; [5]) is given as 33 nM and the IC50 (P.falciparum Dd2) is given as 16 nM. The IC50 [2, 6] was 50 nM.

In the case of `CC[C@H]1CN2CCc3cc(OC)c(OC)cc3[C@@H]2C[C@@H]1C[C@H]1NCCc2cc(O)c(OC)cc21` [Cephaeline], the IC50 [3, 6] is listed as 1000 nM, the IC50 (HEK293T; [4]) is listed as 14 nM and the IC50 (HepG2; [5]) is listed as 62 nM. The IC50 (P.falciparum Dd2) was 28 nM and the IC50 [2, 6] was 3800 nM.

For `COC(=O)C[C@](O)(CCCC(C)(C)O)C(=O)O[C@@H]1C(OC)=C[C@]23CCCN2CCc2cc4c(cc2[C@H]13)OCO4` [Homoharringtonine], the IC50 [3, 9] is given as 1730 nM, the IC50 (HEK293T) is given as 32 nM and the IC50 (HepG2) is given as 122 nM. The IC50 (P.falciparum Dd2) was 7 nM and the IC50 [2, 6] was 2300 nM.

For `CO[C@H]1/C=C\C=C(/C)C(=O)NC2=CC(=O)C(NCCN(C)C)=C(C[C@@H](C)C[C@H](OC)[C@H](O)[C@@H](C)/C=C(\C)[C@@H]1OC(N)=O)C2=O` [Alvespimycin hydrochloride], the IC50 [3, 8] is given as 1750 nM, the IC50 (HEK293T; [4]) is given as 98 nM and the IC50 (HepG2; [5]) is given as 14 nM. The IC50 (P.falciparum Dd2) was 272 nM and the IC50 [2, 6] was 960 nM.
